As a reminder, the chromatographic logP is a lipophilicity value derived from retention on a column.

The results in this text go back to US10231453B2, “5-substituted imidazole derivatives” (BAYER CROPSCIENCE AKTIENGESELLSCHAFT, priority 2015, dated 2019).

Like-named read-outs stand apart in the source and are kept apart here.

A short description of data set [1]: Measurement of LogP values by HPLC on reversed phase columns (EEC directive 79/831 Annex V.A8). It is filed as physicochemical. As to conditions: method [a]: LC-UV, acidic range, 0.1% formic acid in water and acetonitrile as eluent; Table 1. As to the method: Measurement of Log P values was performed as outlined above.
A further data set deals with Botrytis cinerea. Briefly: In vivo preventive test on Botrytis cinerea (grey mould) on gherkin, Examples B, Q1 and R2. As to conditions: Botrytis cinerea.
A further data set deals with Puccinia recondita. The data set is described as follows: In vivo preventive test on Puccinia recondita (brown rust on wheat), Examples C and R3. As to conditions: Puccinia recondita, 264 h, preventive spray, evaluated 11 days after inoculation.
A further data set concerns Pyrenophora teres. Briefly: In vivo preventive test on Pyrenophora teres (net blotch on barley), Examples D, Q2 and R4. The conditions noted are these: Pyrenophora teres, 336 h.
In another data set the test system is Septoria tritici. The data set is described as follows: In vivo preventive test on Septoria tritici (leaf spot on wheat), Examples E, Q3 and R5. The conditions noted are these: Zymoseptoria tritici, 576 h, preventive spray, evaluated 24 days after inoculation.
The test system of another data set is Sphaerotheca fuliginea. The data set is described as follows: In vivo preventive test on Sphaerotheca fuliginea (powdery mildew on cucurbits), Examples F and R6. The conditions noted are these: Podosphaera fuliginea, 360 h, preventive spray, evaluated 15 days after inoculation.
The next data set relates to Uromyces appendiculatus. The data set is described as follows: In vivo preventive test on Uromyces appendiculatus (bean rust), Examples G and R7. As to conditions: 264 h, preventive spray, evaluated 11 days after inoculation.
In another data set the test system is Alternaria solani. Briefly: In vivo preventive Alternaria test (tomatoes), Example H. The conditions noted are these: 72 h, 100 ppm of active ingredient, preventive spray, evaluated 3 days after inoculation, read-out: efficacy.
A further data set relates to Phakopsora pachyrhizi. The data set is described as follows: In vivo preventive Phakopsora test (soybeans), Example I. The conditions noted are these: 168 h, 100 ppm of active ingredient, preventive spray, evaluated 7 days after inoculation, read-out: efficacy.
In data set [2] the test system is Blumeria graminis fsp. hordei. The data set is described as follows: In vivo preventive Blumeria test (barley), Example K. The conditions noted are these: 168 h, 500 ppm of active ingredient, preventive spray, evaluated 7 days after inoculation, read-out: efficacy. The source says: After the spray coating has been dried, the plants are dusted with spores of Blumeria graminis fsp. hordei.

The next data set concerns Fusarium graminearum. The data set is described as follows: whole plant or invertebrate. Type of data set: in vivo. As to conditions: in Hordeum vulgare, 120 h, read-out: efficacy.
A further data set relates to Leptosphaeria nodorum. The data set is described as follows: In vivo preventive Leptosphaeria nodorum test (wheat), Example N. As to conditions: Parastagonospora nodorum, 192 h, 500 ppm of active ingredient, preventive spray, evaluated 8 days after inoculation, read-out: efficacy. The text has this:
After the spray coating has been dried, the plants are sprayed with a spore suspension of Leptosphaeria nodorum.

For data set [3], the system named is Fusarium nivale (var. majus). The data set is described as follows: In vivo preventive Fusarium nivale (var. majus) test (wheat), Example O. As to conditions: Microdochium nivale, 120 h, 500 ppm of active ingredient, preventive spray, evaluated 5 days after inoculation, read-out: efficacy. The text has this: After the spray coating has been dried, the plants are slightly injured by using a sandblast and afterwards they are sprayed with a conidia suspension of Fusarium nivale (var. majus).

Another data set concerns Pyricularia oryzae. The data set is described as follows: whole plant or invertebrate. It is filed as in vivo. The conditions noted are these: 192 h, read-out: efficacy.
The subject of a further data set is Venturia inaequalis. Briefly: In vivo preventive Venturia test (apples), Example J. The conditions noted are these: 240 h, read-out: efficacy.
For the next data set, the system named is Alternaria brassicae. Briefly: In vivo preventive test on Alternaria brassicae (leaf spot on radish), Examples A and R1. As to conditions: Alternaria brassicae, 144 h.
Where [4] appears, read: 500 ppm of active ingredient, preventive spray, evaluated 4 to 5 days after inoculation, read-out: efficacy.
The mark [5] stands for this setting: 500 ppm of active ingredient, wheat, read-out: efficacy.
Where [6] appears, read: 500 ppm of active ingredient, preventive spray, evaluated 14 days after inoculation, read-out: efficacy.
[7] abbreviates: 500 ppm of active ingredient, gherkin, read-out: efficacy.
[8] abbreviates: 500 ppm of active ingredient, bean, read-out: efficacy.

Experimental for Venturia inaequalis: After the spray coating has dried on, the plants are inoculated with an aqueous conidia suspension of the causal agent of apple scab (Venturia inaequalis) and then remain for 1 day in an incubation cabinet at approximately 20° C. and a relative atmospheric humidity of 100%.
The plants are then placed in a greenhouse at approximately 21° C. and a relative atmospheric humidity of approximately 90%.
The test is evaluated 10 days after the inoculation.

`OC(Cc1ccc(F)cc1Cl)(Cn1cncc1Cl)C1(Cl)CC1` (stereo not drawn) [Example I-08] showed a chromatographic logP in [1] of 2.47. Also, the pest or weed control at 500 ppm with Botrytis cinerea (setting [4]) was in the range of 90 to 100%; with Puccinia recondita (setting [5]), 90 to 100%; with Pyrenophora teres (setting [6]), 80 to 89%; in the data set with Septoria tritici (setting [5]), 90 to 100%; in the data set with Sphaerotheca fuliginea (setting [7]), 90 to 100%; with Uromyces appendiculatus (setting [8]) it was 90 to 100%. The pest or weed control at 500 ppm in data set [2] lay in the range of 90 to 100%; in the data set on Fusarium graminearum, 70 to 79%; in the data set with Leptosphaeria nodorum it was 90 to 100%; in data set [3] it was 90 to 100%; in the data set on Pyricularia oryzae, 70 to 79%. For the same molecule, the pest or weed control at 100 ppm with Alternaria solani, in the data set on Phakopsora pachyrhizi and with Venturia inaequalis was 90 to 100% each time.
`OC(Cc1ccccc1F)(Cn1cncc1Cl)C1(Cl)CC1` (stereo not drawn) [Example I-32] showed a chromatographic logP in data set [1] of 2.07. The pest or weed control at 500 ppm with Alternaria brassicae (500 ppm of active ingredient, preventive spray, evaluated 6 days after inoculation, read-out: efficacy) was 90 to 100%; in the data set with Alternaria brassicae (Example R1, rate of application 500 ppm, read-out: Efficacy in %), 92%; with Botrytis cinerea (setting [4]) it was 90 to 100%; with Botrytis cinerea (Example R2, rate of application 500 ppm, read-out: Efficacy in %), 100%; with Puccinia recondita (setting [5]), 90 to 100%; in the data set on Puccinia recondita (Example R3, wheat, 500 ppm, read-out: Efficacy in %) it was 94%. In addition, the pest or weed control at 500 ppm in the data set on Pyrenophora teres (setting [6]) was 80 to 89%; in the data set on Pyrenophora teres (Example R4, rate of application 500 ppm, read-out: Efficacy in %) it was 89%; in the data set with Septoria tritici (setting [5]), 90 to 100%; with Septoria tritici (Example R5, wheat, 500 ppm, read-out: Efficacy in %) it was 100%; in the data set with Sphaerotheca fuliginea (setting [7]), 90 to 100%; in the data set on Sphaerotheca fuliginea (Example R6, gherkin, 500 ppm, read-out: Efficacy in %), 100%. Besides, the pest or weed control at 500 ppm was 90 to 100% in the data set on Uromyces appendiculatus (setting [8]); 100% with Uromyces appendiculatus (Example R7, bean, 500 ppm, read-out: Efficacy in %); 90 to 100% in [2]; 70 to 79% in the data set with Fusarium graminearum; 80 to 89% with Leptosphaeria nodorum; 80 to 89% in data set [3]. Also, the pest or weed control at 100 ppm with Alternaria brassicae (Example R1, rate of application 100 ppm, read-out: Efficacy in %) was found to be 50%; with Botrytis cinerea (Example R2, rate of application 100 ppm, read-out: Efficacy in %), 99%; in the data set on Puccinia recondita (Example R3, wheat, 100 ppm, read-out: Efficacy in %), 78%; in the data set with Pyrenophora teres (Example R4, rate of application 100 ppm, read-out: Efficacy in %), 78%; with Septoria tritici (Example R5, wheat, 100 ppm, read-out: Efficacy in %), 71%; in the data set with Sphaerotheca fuliginea (Example R6, gherkin, 100 ppm, read-out: Efficacy in %), 100%. Also, the pest or weed control at 100 ppm in the data set with Uromyces appendiculatus (Example R7, bean, 100 ppm, read-out: Efficacy in %) is 81%; in the data set with Alternaria solani it was 90 to 100%; with Phakopsora pachyrhizi it was 90 to 100%; in the data set on Venturia inaequalis it was 90 to 100%.
As to `N#Cc1cncn1CC(O)(Cc1ccc(Br)cc1F)C1(Cl)CC1` (stereo not drawn) [Example I-42], the chromatographic logP in [1] is 3.24. The pest or weed control at 500 ppm in the data set on Botrytis cinerea (setting [4]) lay in the range of 80 to 89%; in the data set on Puccinia recondita (setting [5]), 90 to 100%; in the data set on Pyrenophora teres (setting [6]), 70 to 79%; with Septoria tritici (setting [5]), 90 to 100%; with Sphaerotheca fuliginea (setting [7]), 90 to 100%; with Uromyces appendiculatus (setting [8]), 90 to 100%. Also, the pest or weed control at 500 ppm in data set [2] lay within 90 to 100%; in the data set on Fusarium graminearum, 80 to 89%; in the data set with Leptosphaeria nodorum, 90 to 100%; in [3], 80 to 89%; with Pyricularia oryzae, 80 to 89%. The pest or weed control at 100 ppm in the data set with Alternaria solani lay in the range of 70 to 79%; in the data set on Phakopsora pachyrhizi, 90 to 100%; in the data set on Venturia inaequalis, 80 to 89%.
In [1], `N#Cc1cncn1CC(O)(Cc1cccc(Cl)c1Cl)C1(Cl)CC1` (stereo not drawn) [Example I-49] yielded a chromatographic logP of 3.25. For the same molecule, the pest or weed control at 500 ppm (with Puccinia recondita (setting [5]); in the data set with Pyrenophora teres (setting [6]); in the data set on Septoria tritici (setting [5]); in the data set with Sphaerotheca fuliginea (setting [7]); in the data set on Uromyces appendiculatus (setting [8]); in [2]) was 90 to 100% each time. Also, the pest or weed control at 500 ppm lay in the range of 70 to 79% in the data set on Fusarium graminearum, 80 to 89% in the data set on Leptosphaeria nodorum, 80 to 89% in data set [3] and 80 to 89% in the data set with Pyricularia oryzae.
In the case of `OC(Cc1ccncc1Cl)(Cn1cncc1Cl)C1(Cl)CC1` (stereo not drawn) [Example I-72], in data set [1], the chromatographic logP came out at 1.52. For the same molecule, the pest or weed control at 500 ppm with Botrytis cinerea (setting [4]) was 70 to 79%; in the data set on Puccinia recondita (setting [5]) it was 80 to 89%; with Pyrenophora teres (setting [6]), 80 to 89%; in the data set with Septoria tritici (setting [5]) it was 90 to 100%; in the data set on Sphaerotheca fuliginea (setting [7]), 90 to 100%; with Uromyces appendiculatus (setting [8]) it was 90 to 100%. For the same molecule, the pest or weed control at 500 ppm fell in the range of 90 to 100% in data set [2]; 70 to 79% in the data set with Fusarium graminearum; 90 to 100% in the data set on Leptosphaeria nodorum; 90 to 100% in [3]; 90 to 100% in the data set on Pyricularia oryzae.
`N#Cc1cncn1CC(O)(Cc1ccc(F)cc1F)C1(Cl)CC1` (stereo not drawn) [Example I-125] yielded a chromatographic logP in data set [1] of 2.78. The pest or weed control at 500 ppm with Botrytis cinerea (setting [4]) is 80 to 89%; in the data set on Puccinia recondita (setting [5]), 90 to 100%; in the data set on Septoria tritici (setting [5]) it was 90 to 100%; with Sphaerotheca fuliginea (setting [7]), 90 to 100%; with Uromyces appendiculatus (setting [8]) it was 90 to 100%; in [2] it was 90 to 100%. Also, the pest or weed control at 500 ppm was 90 to 100% in the data set on Fusarium graminearum, 80 to 89% with Leptosphaeria nodorum, 90 to 100% in [3] and 80 to 89% with Pyricularia oryzae. Also, the pest or weed control at 100 ppm in the data set with Alternaria solani, in the data set with Phakopsora pachyrhizi and with Venturia inaequalis was 90 to 100% in each case.
Regarding `N#Cc1cncn1CC(O)(Cc1ccnc(Cl)c1F)C1(Cl)CC1` (stereo not drawn) [Example I-152], in data set [1], the chromatographic logP was 2.25. Moreover, the pest or weed control at 500 ppm with Puccinia recondita (setting [5]) lay within 90 to 100%; with Pyrenophora teres (setting [6]), 70 to 79%; with Septoria tritici (setting [5]), 90 to 100%; in the data set with Sphaerotheca fuliginea (setting [7]) it was 90 to 100%; in the data set with Uromyces appendiculatus (setting [8]) it was 90 to 100%; in [2], 90 to 100%. Besides, the pest or weed control at 500 ppm with Fusarium graminearum was in the range of 70 to 79%; with Leptosphaeria nodorum, 70 to 79%; in data set [3] it was 90 to 100%.
For `N#Cc1cncn1CC(O)(Cc1ccc(F)cc1Cl)C1(Cl)CC1` (stereo not drawn) [Example I-154], the chromatographic logP in data set [1] was 3. Further, the pest or weed control at 500 ppm is 80 to 89% in the data set with Botrytis cinerea (setting [4]); 90 to 100% in the data set with Puccinia recondita (setting [5]); 90 to 100% in the data set on Septoria tritici (setting [5]); 90 to 100% with Sphaerotheca fuliginea (setting [7]); 90 to 100% with Uromyces appendiculatus (setting [8]); 90 to 100% in [2]. For the same molecule, the pest or weed control at 500 ppm in the data set on Fusarium graminearum lay in the range of 90 to 100%; with Leptosphaeria nodorum it was 90 to 100%; in [3], 90 to 100%; with Pyricularia oryzae, 70 to 79%.
